According to ChEMBL document CHEMBL4145686, “Discovery of a Potent and Selective Steroidal Glucocorticoid Receptor Antagonist (ORIC-101)” (J Med Chem, 2018):

Columns and labels:
Androgen receptor [1] = biological target: T1, Androgen receptor (Homo sapiens, UniProt P10275); assay: Agonist activity at AR (unknown origin) expressed in human LNCaP cells incubated for 20 hrs by luciferase reporter gene assay; format: cell-based
T1 sequence (P10275 whole entry): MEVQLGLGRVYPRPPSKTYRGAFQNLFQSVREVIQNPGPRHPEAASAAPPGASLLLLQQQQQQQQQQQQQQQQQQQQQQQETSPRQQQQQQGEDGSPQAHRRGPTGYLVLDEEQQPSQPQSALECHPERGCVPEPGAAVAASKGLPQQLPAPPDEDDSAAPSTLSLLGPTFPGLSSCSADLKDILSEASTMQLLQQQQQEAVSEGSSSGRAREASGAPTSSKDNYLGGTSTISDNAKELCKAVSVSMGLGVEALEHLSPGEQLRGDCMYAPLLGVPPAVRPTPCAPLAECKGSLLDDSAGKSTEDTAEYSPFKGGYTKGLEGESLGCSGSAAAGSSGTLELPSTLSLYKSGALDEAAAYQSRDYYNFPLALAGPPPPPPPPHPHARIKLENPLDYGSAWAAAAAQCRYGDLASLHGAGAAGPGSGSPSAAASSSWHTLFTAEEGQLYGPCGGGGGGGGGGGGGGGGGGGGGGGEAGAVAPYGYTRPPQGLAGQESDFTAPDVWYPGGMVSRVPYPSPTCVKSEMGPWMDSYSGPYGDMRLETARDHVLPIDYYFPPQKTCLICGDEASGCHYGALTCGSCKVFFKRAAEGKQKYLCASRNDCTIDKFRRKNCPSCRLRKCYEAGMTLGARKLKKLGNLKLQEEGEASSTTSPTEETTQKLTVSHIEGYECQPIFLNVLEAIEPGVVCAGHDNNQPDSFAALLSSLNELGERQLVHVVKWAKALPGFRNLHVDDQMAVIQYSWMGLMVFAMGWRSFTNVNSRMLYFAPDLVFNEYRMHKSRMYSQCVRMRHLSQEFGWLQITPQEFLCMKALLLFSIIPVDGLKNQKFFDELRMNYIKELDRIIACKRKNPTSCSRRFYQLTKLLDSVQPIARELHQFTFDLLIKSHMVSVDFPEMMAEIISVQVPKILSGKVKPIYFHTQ

Androgen receptor [2] = biological target: T1, Androgen receptor; assay: Antagonist activity at AR (unknown origin) expressed in human LNCaP cells assessed as reduction in R1881-induced response incubated for 20 hrs by luciferase reporter gene assay; format: cell-based
Androgen receptor [3] = biological target: T1, Androgen receptor; assay: Agonist activity at AR in human LNAR cells assessed as increase in PSA gene expression at 100 nM incubated for 24 hrs by RT-qPCR method; format: cell-based; conditions: 0.1 µM
Androgen receptor [4] = biological target: T1, Androgen receptor; assay: Agonist activity at AR in human MDA-MB-453 cells assessed as increase in […] gene expression at 111 to 333 nM incubated for 24 hrs by RT-qPCR method; format: cell-based; conditions: mda-mb-453, 24 h, 0.333 µM
[5] = Clearance in mouse at 0.5 mg/kg, iv; format: ADME, organism-based; conditions: in vivo
[6] = Volume of distribution at steady state in mouse at 0.5 mg/kg, iv; format: ADME, organism-based; conditions: in vivo, read-out: Vdss
[7] = Half life in mini pig at 0.5 mg/kg, iv; format: ADME, organism-based, Sus scrofa; conditions: in vivo
Cytochrome P450 2C9 = Cytochrome P450 2C9 (Homo sapiens, UniProt P11712); assay: Inhibition of CYP2C9 (unknown origin) using […] as substrate; format: ADME
Progesterone receptor = biological target: T2, Progesterone receptor (Homo sapiens, UniProt P06401); assay: Antagonist activity at human PR expressed in CHO-K1 cells assessed as reduction in progesterone-induced response incubated for 20 hrs by luciferase reporter gene assay; format: cell-based
T2 sequence (P06401 whole entry): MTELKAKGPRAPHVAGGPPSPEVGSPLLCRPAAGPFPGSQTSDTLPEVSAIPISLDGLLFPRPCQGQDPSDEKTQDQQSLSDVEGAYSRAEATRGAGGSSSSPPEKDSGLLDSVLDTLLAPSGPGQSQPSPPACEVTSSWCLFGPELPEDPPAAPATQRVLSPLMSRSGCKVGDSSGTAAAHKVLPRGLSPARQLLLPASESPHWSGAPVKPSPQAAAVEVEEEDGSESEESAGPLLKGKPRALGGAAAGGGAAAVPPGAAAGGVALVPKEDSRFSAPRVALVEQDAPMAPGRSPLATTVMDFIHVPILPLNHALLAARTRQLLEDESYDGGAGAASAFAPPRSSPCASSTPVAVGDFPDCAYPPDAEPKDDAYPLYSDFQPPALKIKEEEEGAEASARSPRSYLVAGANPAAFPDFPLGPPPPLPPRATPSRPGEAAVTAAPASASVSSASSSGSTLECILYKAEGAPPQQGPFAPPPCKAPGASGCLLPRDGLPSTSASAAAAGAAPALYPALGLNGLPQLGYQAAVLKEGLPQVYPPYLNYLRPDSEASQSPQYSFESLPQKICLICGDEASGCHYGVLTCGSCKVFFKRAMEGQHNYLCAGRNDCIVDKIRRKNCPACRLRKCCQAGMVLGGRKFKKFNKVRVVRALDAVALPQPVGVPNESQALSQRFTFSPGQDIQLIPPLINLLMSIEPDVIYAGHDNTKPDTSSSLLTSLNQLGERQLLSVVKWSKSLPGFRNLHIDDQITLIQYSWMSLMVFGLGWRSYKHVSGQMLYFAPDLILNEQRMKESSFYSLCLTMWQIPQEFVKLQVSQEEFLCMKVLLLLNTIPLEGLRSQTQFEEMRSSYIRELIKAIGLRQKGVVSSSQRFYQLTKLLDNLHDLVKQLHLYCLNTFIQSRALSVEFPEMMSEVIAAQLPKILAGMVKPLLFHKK

[8] = Antagonist activity at GR in monkey PBMC assessed as reduction in dexamethasone-induced GILZ gene expression incubated for 6 hrs by RT-qPCR method; format: cell-based; conditions: Macaca mulatta

Sequence of Cytochrome P450 2C9 (P11712 whole entry): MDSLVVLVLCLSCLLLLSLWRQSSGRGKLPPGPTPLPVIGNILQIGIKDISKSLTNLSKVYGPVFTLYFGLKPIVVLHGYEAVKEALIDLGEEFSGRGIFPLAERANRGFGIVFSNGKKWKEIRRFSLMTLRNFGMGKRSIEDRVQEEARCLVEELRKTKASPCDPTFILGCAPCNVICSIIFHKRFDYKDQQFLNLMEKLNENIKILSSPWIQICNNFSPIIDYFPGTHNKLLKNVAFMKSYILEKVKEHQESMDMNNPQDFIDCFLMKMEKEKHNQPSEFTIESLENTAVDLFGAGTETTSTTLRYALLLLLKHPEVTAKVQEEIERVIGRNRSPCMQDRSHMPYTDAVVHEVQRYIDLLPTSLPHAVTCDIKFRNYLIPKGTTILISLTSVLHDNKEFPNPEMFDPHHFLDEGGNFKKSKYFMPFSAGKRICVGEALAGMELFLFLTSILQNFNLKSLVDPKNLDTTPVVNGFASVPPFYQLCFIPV

Q: Which results are given for `CC(C)N(C)c1ccc([C@H]2C[C@@]3(C)[C@@H](CC[C@@]3(O)C#CC(C)(C)C)[C@@H]3CCC4=CC(=O)CC[C@@H]4[C@H]32)cc1`?
A: EC50 (Androgen receptor [1]): > 2500 nM; IC50 (Androgen receptor [2]): 484 nM; Activity (Androgen receptor [3]): Not Active; Activity (Androgen receptor [4]): Not Active; clearance [5]: 27.2 mL/min/kg; Vd [6]: 5.01 L/kg; half-life [7]: 12.2 h; IC50 (Cytochrome P450 2C9): > 10000 nM; IC50 (Progesterone receptor): 21 nM; IC50 [8]: 14.9 nM
